{"source": "patent US20170368134A1", "about": "“PROTEASOME INHIBITORS FOR TREATING A DISORDER RELATED TO AN ACCUMULATION OF NON-DEGRADED ABNORMAL PROTEIN OR A CANCER” (UNIVERSITÉ D'AIX-MARSEILLE, priority 2015, published 2017)", "key": {"SRSF-1 [1]": {"tested_on": "SRSF-1", "assay": "Western blot of SRSF-1 in HGPS fibroblasts", "assay_type": "cell-based, human", "conditions": "48 h treatment of HGPS fibroblasts with MG132 (10 μM)", "experimental": "Total fibroblast proteins were extracted in 200 μL of NP40 Cell Lysis buffer (Invitrogen, Carlsbad, Calif.) containing Protease and Phosphatase Inhibitor Cocktail (Thermo Scientific). Alternatively, cells were lysed with urea (8 M urea, 5 mM dithiothreitol, 150 mM NaCl, 50 mM Tris-Cl pH 7.5, protease and phosphatase Inhibitor Cocktail (Thermo Scientific)). Cells were sonicated twice (30 sec each), incubated at 4° C. for 30 minutes and then centrifuged at 10,000 g for 10 minutes. Protein concentration was evaluated with the bicinchoninic acid technique (Pierce BCA Protein Assay Kit), absorbance at 562 nm is measured using nanodrop 1000 (Thermo Fisher Scientific Inc.) Equal amounts of proteins (40 μg) were loaded onto 10% Tis-Glycine gel (Criterion™ XT precast gel) using XT Tricine running Buffer (Biorad, USA). After electrophoresis, gels were electro transferred onto nitrocellulose membranes or Immobilon-FL polyvinylidene fluoride membranes (Millipore), blocked in Odyssey Blocking Buffer diluted 1:1 in PBS for 1 hour at room temperature, and incubated overnight at 4° C. or 2 hours at room temperature with various primary antibodies. Blots were washed with TBS-T buffer [20 mM tris (pH 7.4), 150 mM NaCl, and 0.05% Tween 20] and incubated with 1:10,000 IR-Dye 800-conjugated secondary donkey anti-goat or IR-Dye 700-conjugated secondary anti-mouse antibodies (LI-COR Biosciences) in Odyssey blocking buffer (LI-COR Biosciences). For IR-Dye 800 and IR-Dye 700 detection, an Odyssey Infrared Imaging System (LI-COR Biosciences) was used. GAPDH, α-tubulin or β-actin were used as a total cellular protein loading control."}, "[2]": {"tested_on": "HGPS fibroblasts, HGPS derived iPS-MSC or iPS-VSMC", "assay": "CellTiter-Glo Luminescent Cell Viability Assay", "assay_type": "cell-based, human", "conditions": "24 h, doses used in this study", "experimental": "HGPS fibroblasts, HGPS derived iPS-MSC or iPS-VSMC viability was measured at 24 h post treatment with MG132 at the indicated concentrations using CellTiter-Glo Luminescent Cell Viability Assay. Results are reported as viability percentage of MG132-treated cells relative to untreated cells."}, "[3]": {"tested_on": "wild-type first instar larvae", "assay": "Toxicity of MG132 fed to Drosophila larvae", "assay_type": "in vivo", "conditions": "600 μM MG132 (in 0.2% DMSO) in the fly medium, 25° C.", "experimental": "(A) The toxicity of MG132 fed to larvae was determined by transferring 80 wild-type first instar larvae into vials containing 5 ml of instant Drosophila medium reconstituted either with increasing concentrations of drug in DMSO, or DMSO alone.\nDrug supplemented food was prepared as follows. Instant Drosophila medium (Carolina Biological Supply Company) was reconstituted in each vial with a solution of 1% yeast in water, supplemented with either increasing concentrations of drug solubilized in DMSO (dimethyl sulfoxide), or DMSO alone. MG132 was purchased from Santa Cruz Biotechnology (SC-201270). Each vial contained 5 ml or 2.5 ml of reconstituted medium, to raise larvae or adults, respectively. Individuals were fed with the drug from larval stages. 70 to 80 first instar larvae were transferred per vial and developed in the same vial up to adulthood; adults were transferred in a new vial with the same concentration of drug. To determine drug toxicity, 80 first instar larvae were transferred into vials containing drug- or DMSO alone-supplemented medium. Individuals reaching adulthood were scored. Abnormal wing posture was quantified by collecting adult males at birth, pooling five males per vial and scoring abnormal wing position each day by direct observation of the flies through the vials, without anesthesia."}, "lamin C": {"tested_on": "lamin C", "assay": "Intramuscular MG132 in Lmna G609G/G609G mice, lamin C in gastrocnemius muscle", "assay_type": "in vivo, mouse", "experimental": "(A) Lamin A, progerin, lamin C and SRSF-1 specific bands, corresponding to DMSO-treated left muscle (−) and 1 μg/Kg MG132-treated right muscle (+), were quantified by ImageJ software and their expression levels were normalized to GAPDH values.\nKnock-in mouse model (Lmna^G609G/G609G) carrying the c.1827C>T (p.Gly609Gly) mutation in the endogenous Lmna gene, corresponding to the human HGPS mutation c.1824C>T (p.Gly609Gly) have been described previously (31). MG132 (1 or 10 μg/Kg body weight) was injected under isoflurane anesthesia into the right gastrocnemius muscle of […] homozygous knock-in mice (Lmna^G609G/G609G) 3 times per week for 2 weeks. Contralateral muscle served as control (DMSO). MG132 was dissolved in dimethyl sulfoxide (DMSO) and then diluted in 100 μl sterile phosphate-buffered saline (PBS) for intramuscular injection. […] Animal experiments have been carried out in compliance with the European guidelines for the care and use of laboratory animals (EU directive 2010/63/EU) and in accordance with the recommendations provided by the guide for the care and use of the laboratory animals of the French national Institute for Health and Medical Research (INSERM) and the ethical committee of Aix-Marseille University."}, "progerin": {"tested_on": "progerin", "assay": "Progerin levels in HGPS iPS-derived MSC and VSMC", "assay_type": "cell-based, human", "conditions": "data not shown", "experimental": "(§1) Generation of induced pluripotent stem cells (iPS) by reprogramming was carried out using fibroblasts isolated from HGPS patient biopsies performed in the Assistance Publique Hopitaux de Marseille (13-8243) or provided by Coriell Institute (Camden, USA) (AG01972). Cell lines were reprogrammed to iPSC using Yamanaka's original method based on retrovirus-mediated transfection of four transcription factors, namely Oct3/4, Sox2, c-Myc, and Klf4 (41). The iPSC lines were amplified up to the 15th passage before differentiation.\n(§2) HGPS iPSC were grown on STO mouse fibroblasts, inactivated with […] mitomycin C, seeded at 30,000/cm2 and grown as previously described (42). For differentiation, iPSC were differentiated into mesenchymal stem cells (MSC-iPSC) using directed protocols for differentiation previously published (43-45). VSMC were obtained from iPSC by fluorescent-activated cell sorting (FACS) separation of CD31+ cells (46).\nTo determine whether MG132 also influences the level of progerin in other cell lineages, the inventors generated iPSC from HGPS patients' fibroblasts. Mesenchymal Stem Cells (MSC) and Vascular Smooth Muscle Cells (VSMC) derived from HGPS iPSC presented the commonly described abnormalities of HGPS fibroblasts, namely, loss of proliferation capacities, premature senescence and nuclear blebbing (69, 70). […]"}, "SRSF-1 [4]": {"tested_on": "SRSF-1", "assay": "SRSF-1 levels in HGPS fibroblasts, iPS-MSC and iPS-VSMC", "assay_type": "cell-based, human", "conditions": "data not shown", "experimental": "as §1, §2"}}, "note": "Peptide text beside a SMILES is read from it. * marks the point of attachment. Cbz = O=C(OCc1ccccc1)*", "data": [{"compound": "CC(C)C[C@@H](C=O)NC(=O)[C@H](CC(C)C)NC(=O)[C@H](CC(C)C)NC(=O)OCc1ccccc1", "note": "[MG132, Z-Leu-Leu-Leu-al] (Cbz-Leu-Leu-Leu-aldehyde)", "values": [{"measurement": "SRSF-1 levels", "setting": "SRSF-1 [1]", "result": "significant decrease of SRSF-1 levels"}, {"measurement": "viability / mortality", "setting": "[2]", "result": "do not induce significant mortality"}, {"measurement": "viability (flies reaching adulthood)", "setting": "[3]", "result": "not detrimental for viability"}, {"measurement": "lamin C level in treated muscle", "setting": "lamin C; 1 μg/Kg intramuscular, change not significant", "result": "decrease of lamin C"}, {"measurement": "lamin C level in treated muscle", "setting": "lamin C; 10 μg/kg body weight intramuscular", "result": "decrease in lamin C"}, {"measurement": "progerin levels", "setting": "progerin; HGPS fibroblasts, iPS-MSC and iPS-VSMC", "result": "decreased"}, {"measurement": "concentration from which progerin reduction is significant", "setting": "progerin; iPS-VSMC, progerin immunostaining", "result": "≥ 1.25", "unit": "µM"}, {"measurement": "SRSF-1 levels", "setting": "SRSF-1 [4]", "result": "decreased"}]}]}
